Row | Compound | melting point
1 | COc1ccc(C2CCN(C(=O)Oc3ccc4cc(CN5CCCC5)ccc4c3)CC2)cc1 | 127 to 129 °C
2 | Cc1ccc(C2CCN(C(=O)Oc3ccc4cc(CN5CCCC5)ccc4c3)CC2)cc1 | 238 to 240 °C
3 | Cl.O=C(Oc1ccc2cc(CN3CCCC3)ccc2c1)N1CCC(c2ccccc2)CC1 | 213 to 215 °C
4 | O=C(Nc1ccc2cc(CN3CCCC3)ccc2c1)c1ccc(-c2ccc(Cl)cc2)cc1 [Example 2, 4′-Chloro-N-[6-(1-pyrrolidinylmethyl)-2-naphthyl][1,1′-biphenyl]-4-carboxamide] | 214 to 217 °C
5 | CN(C)Cc1ccc2cc(NC(=O)c3ccc(-c4ccc(Cl)cc4)cc3)ccc2n1 [Example 6, 4′-Chloro-N-[2-[(N,N-dimethylamino)methyl]-6-quinolinyl][1,1′-biphenyl]-4-carboxamide] | 219 to 221 °C
6 | O=C(Nc1ccc2nc(CN3CCCC3)ccc2c1)c1ccc(-c2ccc(F)cc2)cc1 [Example 7, 4′-Fluoro-N-[2-(1-pyrrolidinylmethyl)-6-quinolinyl][1,1′-biphenyl]-4-carboxamide] | 190 to 193 °C
7 | O=C(Nc1ccc2nc(CN3CCCC3)ccc2c1)c1ccc(-c2ccc(Cl)cc2)cc1 [Example 8, 4′-Chloro-N-[2-(1-pyrrolidinylmethyl)-6-quinolinyl][1,1′-biphenyl]-4-carboxamide] | 200 to 202 °C
8 | O=C(Nc1ccc2nc(CN3CCCCC3)ccc2c1)c1ccc(-c2ccc(Cl)cc2)cc1 [Example 10, 4′-Chloro-N-[2-(1-piperidinylmethyl)-6-quinolinyl][1,1′-biphenyl]-4-carboxamide] | 211 to 213 °C
9 | O=C(Nc1ccc2nc(CN3CCOCC3)ccc2c1)c1ccc(-c2ccccc2)cc1 [Example 12, N-[2-(4-Morpholinylmethyl)-6-quinolinyl][1,1′-biphenyl]-4-carboxamide] | 214 to 215 °C
10 | O=C(Nc1ccc2nc(CN3CCOCC3)ccc2c1)c1ccc(-c2ccc(F)cc2)cc1 [Example 13, 4′-Fluoro-N-[2-(4-morpholinylmethyl)-6-quinolinyl][1,1′-biphenyl]-4-carboxamide] | 211 to 212 °C
11 | CN(C)Cc1ccc2cc(NC(=O)c3ccc(-c4ccccc4)cc3)ccc2n1 [Example 15, N-[2-[(Dimethylamino)methyl]-6-quinolinyl][1,1′-biphenyl]-4-carboxamide] | 191 to 194 °C
12 | Cc1ccc(-c2ccc(C(=O)Nc3ccc4nc(CN(C)C)ccc4c3)cn2)cc1 [Example 17, N-[2-[(Dimethylamino)methyl]-6-quinolinyl]-6-(4-methylphenyl)nicotinamide] | 220 to 222 °C
13 | CC1CCN(c2ccc(C(=O)Nc3ccc4nc(CN5CCCC5)ccc4c3)cc2)CC1 [Example 21, 4-(4-Methyl-1-piperidinyl)-N-[2-(1-pyrrolidinylmethyl)-6-quinolinyl]benzamide] | 200 to 202 °C
14 | O=C(Nc1ccc2nc(CN3CCCC3)ccc2c1)c1ccc(N2CCCCC2=O)cc1 [Example 22, 4-(2-Oxo-1-piperidinyl)-N-[2-(1-pyrrolidinylmethyl)-6-quinolinyl]benzamide] | 210 to 212 °C
15 | O=C(Nc1ccc2nc(CN3CCCC3)ccc2c1)N1CCC(c2ccc(F)cc2)CC1 [Example 38, 4-(4-Fluorophenyl)-N-[2-(1-pyrrolidinylmethyl)-6-quinolinyl]-1-piperidinecarboxamide] | 206 to 207 °C
16 | O=C(Nc1ccc2nc(CN3CCCC3)ccc2c1)N1CCC(c2ccccc2)CC1 [Example 39, 4-Phenyl-N-[2-(1-pyrrolidinylmethyl)-6-quinolinyl]-1-piperidinecarboxamide] | 187 to 189 °C
17 | Cc1ccc(C2CCN(C(=O)Nc3ccc4nc(CN5CCCC5)ccc4c3)CC2)cc1 [Example 41, 4-(4-Methylphenyl)-N-[2-(1-pyrrolidinylmethyl)-6-quinolinyl]-1-piperidinecarboxamide] | 214 to 216 °C
18 | O=C(Nc1ccc2nc(CN3CCCC3)ccc2c1)c1ccc(-c2ccccc2)cc1 [Example 43, N-[2-(1-Pyrrolidinylmethyl)-6-quinolinyl][1,1′-biphenyl]-4-carboxamide] | 181 to 183 °C
19 | Cc1ccc(-c2ccc(C(=O)Nc3ccc4nc(CN5CCCC5)ccc4c3)cn2)cc1 [Example 46, 6-(4-Methylphenyl)-N-[2-(1-pyrrolidinylmethyl)-6-quinolinyl]nicotinamide] | 207 to 209 °C
20 | O=C(Nc1ccc2nc(CN3CCCC3)ccc2c1)C1CCN(c2ccc(Cl)cc2)CC1 [Example 52, 1-(4-Chlorophenyl)-N-[2-(1-pyrrolidinylmethyl)-6-quinolinyl]-4-piperidinecarboxamide] | 204 to 206 °C
21 | O=C(Nc1ccc2nc(CN3CCCCC3)ccc2c1)c1ccc(-c2ccccc2)cc1 [Example 54, N-[2-(1-Piperidinylmethyl)-6-quinolinyl][1,1′-biphenyl]-4-carboxamide] | 186 to 188 °C
22 | O=C(Nc1ccc2nc(CN3CCCCC3)ccc2c1)c1ccc(-c2ccc(F)cc2)nc1 [Example 59, 6-(4-Fluorophenyl)-N-[2-(1-piperidinylmethyl)-6-quinolinyl]nicotinamide] | 209 to 210 °C (dec.)
23 | COc1ccc(-c2ccc(C(=O)Nc3ccc4nc(CN5CCCCC5)ccc4c3)cn2)cc1 [Example 60, 6-(4-Methoxyphenyl)-N-[2-(1-piperidinylmethyl)-6-quinolinyl]nicotinamide] | 210 to 211 °C (dec.)
24 | Cc1ccc(-c2ccc(C(=O)Nc3ccc4nc(CN5CCCC5)ccc4c3)cc2)cc1 [Example 61, 4′-Methyl-N-[2-(1-pyrrolidinylmethyl)-6-quinolinyl][1,1′-biphenyl]-4-carboxamide] | 192 to 193 °C

Continued, values first:

Row | melting point | Compound
25 | 121 to 123 °C | O=C(Oc1ccc2cc(CN3CCCC3)ccc2c1)N1CCC(c2ccc(Cl)cc2)CC1
26 | 106 to 108 °C | O=C(Oc1ccc2cc(CN3CCCC3)ccc2c1)N1CCC(c2ccc(F)cc2)CC1
27 | 181 to 182 °C | O=C(Nc1ccc2nc(CN3CCCCC3)ccc2c1)c1ccc(-c2ccc(F)cc2F)cc1 (hydrate or solvate) [Example 68, 2′,4′-Difluoro-N-[2-(1-piperidinylmethyl)-6-quinolinyl][1,1′-biphenyl]-4-carboxamide]
28 | 202 to 204 °C | O=C(Nc1ccc2nc(CN3CCCCC3)ccc2c1)c1ccc(-c2ccc(F)cc2)cc1 [Example 9, 4′-Fluoro-N-[2-(1-piperidinylmethyl)-6-quinolinyl][1,1′-biphenyl]-4-carboxamide]
29 | 236 to 238 °C | O=C(Nc1ccc2nc(CN3CCOCC3)ccc2c1)c1ccc(-c2ccc(Cl)cc2)cc1 [Example 11, 4′-Chloro-N-[2-(4-morpholinylmethyl)-6-quinolinyl][1,1′-biphenyl]-4-carboxamide]
30 | 214 to 216 °C | Cc1ccc(-c2ccc(C(=O)Nc3ccc4nc(CN5CCOCC5)ccc4c3)cn2)cc1 [Example 14, 6-(4-Methylphenyl)-N-[2-(4-morpholinylmethyl)-6-quinolinyl]nicotinamide]
31 | 205 to 208 °C | CN(C)Cc1ccc2cc(NC(=O)c3ccc(-c4ccc(F)cc4)cc3)ccc2n1 [Example 16, N-[2-[(Dimethylamino)methyl]-6-quinolinyl]-4′-fluoro[1,1′-biphenyl]-4-carboxamide]
32 | 215 °C (dec.) | CN1CCN(Cc2ccc3cc(NC(=O)c4ccc(-c5ccc(Cl)cc5)cc4)ccc3n2)CC1 [Example 24, 4′-Chloro-N-[2-[(4-methyl-1-piperazinyl)methyl]-6-quinolinyl][1,1′-biphenyl]-4-carboxamide]
33 | 205 °C (dec.) | O=C(Nc1ccc2nc(CN3CCCC3)ccc2c1)N1CCC(c2ccc(Cl)cc2)CC1 [Example 40, 4-(4-Chlorophenyl)-N-[2-(1-pyrrolidinylmethyl)-6-quinolinyl]-1-piperidinecarboxamide]
34 | 210 °C (dec.) | COc1ccc(-c2ccc(C(=O)Nc3ccc4nc(CN5CCCC5)ccc4c3)cn2)cc1 [Example 42, 6-(4-Methoxyphenyl)-N-[2-(1-pyrrolidinylmethyl)-6-quinolinyl]nicotinamide]
35 | 225 to 227 °C | O=C(Nc1ccc2nc(CN3CCCC3)ccc2c1)c1ccc(-c2ccc(Cl)cc2)nc1 [Example 44, 6-(4-Chlorophenyl)-N-[2-(1-pyrrolidinylmethyl)-6-quinolinyl]nicotinamide]
36 | 210 °C | O=C(Nc1ccc2nc(CN3CCCC3)ccc2c1)c1ccc(-c2ccc(F)cc2)nc1 [Example 45, 6-(4-Fluorophenyl)-N-[2-(1-pyrrolidinylmethyl)-6-quinolinyl]nicotinamide]
37 | 198 to 200 °C | Cc1ccc(-c2ccc(C(=O)Nc3ccc4nc(CN5CCCCC5)ccc4c3)cc2)cc1 [Example 55, 4′-Methyl-N-[2-(1-piperidinylmethyl)-6-quinolinyl][1,1′-biphenyl]-4-carboxamide]
38 | 192 to 194 °C | COc1ccc(-c2ccc(C(=O)Nc3ccc4nc(CN5CCCCC5)ccc4c3)cc2)cc1 [Example 56, 4′-Methoxy-N-[2-(1-piperidinylmethyl)-6-quinolinyl][1,1′-biphenyl]-4-carboxamide]
39 | 215 to 218 °C (dec.) | O=C(Nc1ccc2nc(CN3CCCCC3)ccc2c1)c1ccc(-c2ccc(Cl)cc2)nc1 [Example 57, 6-(4-Chlorophenyl)-N-[2-(1-piperidinylmethyl)-6-quinolinyl]nicotinamide]
40 | 206 to 207 °C (dec.) | Cc1ccc(-c2ccc(C(=O)Nc3ccc4nc(CN5CCCCC5)ccc4c3)cn2)cc1 [Example 58, 6-(4-Methylphenyl)-N-[2-(1-piperidinylmethyl)-6-quinolinyl]nicotinamide]
41 | 197 to 199 °C | COc1ccc(-c2ccc(C(=O)Nc3ccc4nc(CN5CCCC5)ccc4c3)cc2)cc1 [Example 62, 4′-Methoxy-N-[2-(1-pyrrolidinylmethyl)-6-quinolinyl][1,1′-biphenyl]-4-carboxamide]
42 | 214 to 217 °C (dec.) | O=C(Nc1ccc2nc(CN3CCCCC3)ccc2c1)N1CCC(c2ccc(Cl)cc2)CC1 [Example 63, 4-(4-Chlorophenyl)-N-[2-(1-piperidinylmethyl)-6-quinolinyl]-1-piperidinecarboxamide]

Reference: US6930185B2, “Melanin-concentrating hormone antagonist” (Takeda Chemical Industries, Ltd., priority 2000, dated 2005)
